# Earlier results as cited in patent US7324926B2, “Methods for predicting chemosensitivity or chemoresistance” (Whitehead Institute for Biomedical Research, priority 1999, dated 2008).
# Key:
# [1] = test system: ovarian cancer cell lines; settings: ovarian cancer cell lines of the NCI-60 panel; resistant = log10(GI50) at least 0.8 SD above the mean
# [2] = test system: central nervous system (CNS) cell lines; settings: CNS cell lines of the NCI-60 panel; sensitive = log10(GI50) at least 0.8 SD below the mean
smiles,measurement,setting,value
"C=C1[C@@H](C)[C@H]2[C@H](Cc3ccccc3)NC(=O)[C@]23[C@H](OC(C)=O)/C=C/[C@@](C)(O)C(=O)[C@@H](C)C/C=C/[C@H]3[C@@H]1O [cytochalasin D, Cytochalasin D]",cytochalasin D sensitivity class of cell lines (from GI50),[1],resistant
same,cytochalasin D sensitivity class of cell lines (from GI50),[2],sensitive
